In ChEMBL document CHEMBL4130460, “Anti-inflammatory Activity of Eudesmane-Type Sesquiterpenoids from Salvia plebeia” (J Nat Prod, 2017):
Activity calls are given as the source filed them. The calls are words filed in the database; no cut-off is given here.

Assays:
[1] = test system: RAW264.7; assay: Cytotoxicity against mouse RAW264.7 cells assessed as reduction in cell viability at 50 uM after 24 hrs by MTT assay; assay type: cell-based; details: raw264.7, 24 h
[2] = test system: RAW264.7; assay: Inhibition of ERK phosphorylation in LPS-stimulated mouse RAW264.7 cells at 5 to 25 uM preincubated for 1 hr followed by LPS stimulation for 30 mins by Western blot method; assay type: cell-based
[3] = test system: RAW264.7; assay: Inhibition of NF-kappaB in LPS-induced mouse RAW264.7 cells assessed as reduction in TNFalpha mRNA levels at 5 to 25 uM preincubated for 1 hr followed by LPS stimulation measured after 24 hrs by RT-PCR analysis; assay type: cell-based
[4] = test system: RAW264.7; assay: Inhibition of NF-kappaB in LPS-induced mouse RAW264.7 cells assessed as reduction in IL-1beta mRNA levels preincubated for 1 hr followed by LPS stimulation measured after 24 hrs by RT-PCR analysis; assay type: cell-based
[5] = biological target: Transcription factor p65 (Mus musculus) (UniProt Q04207); assay: Inhibition of NF-kappaB p65 phosphorylation in cytosol of LPS-stimulated mouse RAW264.7 cells at 5 to 25 uM preincubated for 1 hr followed by LPS stimulation for 90 mins by Western blot method; assay type: cell-based
[6] = test system: RAW264.7; assay: Inhibition of NF-kappaB in LPS-induced mouse RAW264.7 cells assessed as reduction in iNOS mRNA levels preincubated for 1 hr followed by LPS stimulation measured after 24 hrs by RT-PCR analysis; assay type: cell-based
[7] = biological target: MAP kinase p38 (Mus musculus) (UniProt P47811+O08911+Q9WUI1+Q9Z1B7); assay: Inhibition of MAPK p38 phosphorylation in LPS-stimulated mouse RAW264.7 cells at 5 to 25 uM preincubated for 1 hr followed by LPS stimulation for 30 mins by Western blot method; assay type: cell-based
[8] = test system: RAW264.7; assay: Inhibition of NF-kappaB in LPS-induced mouse RAW264.7 cells assessed as reduction in COX2 mRNA levels at 5 to 25 uM preincubated for 1 hr followed by LPS stimulation measured after 24 hrs by RT-PCR analysis; assay type: cell-based
[9] = biological target: Transcription factor p65 (Mus musculus) (UniProt Q04207); assay: Inhibition of NF-kappaB p65 phosphorylation in nucleus of LPS-stimulated mouse RAW264.7 cells at 5 to 25 uM preincubated for 1 hr followed by LPS stimulation for 90 mins by Western blot method; assay type: cell-based
[10] = test system: RAW264.7; assay: Anti-inflammatory activity in mouse RAW264.7 cells assessed as reduction in LPS-induced NO production preincubated for 30 mins followed by LPS stimulation measured after 24 hrs by Griess assay; assay type: functional, cell-based
[11] = test system: RAW264.7; assay: Inhibition of NF-kappaB in LPS-induced mouse RAW264.7 cells assessed as reduction in iNOS protein expression levels at 5 to 25 uM preincubated for 1 hr followed by LPS stimulation measured after 24 hrs by Western blot analysis; assay type: cell-based
[12] = test system: RAW264.7; assay: Inhibition of NF-kappaB in LPS-induced mouse RAW264.7 cells assessed as reduction in COX2 protein expression levels at 5 to 25 uM preincubated for 1 hr followed by LPS stimulation measured after 24 hrs by Western blot analysis; assay type: cell-based
[13] = biological target: T1, NF-kappa-B inhibitor alpha (Mus musculus) (UniProt Q9Z1E3); assay: Inhibition of IkappaBalpha phosphorylation in nucleus of LPS-stimulated mouse RAW264.7 cells at 5 to 25 uM preincubated for 1 hr followed by LPS stimulation for 90 mins by Western blot method; assay type: cell-based
T1 sequence (whole entry): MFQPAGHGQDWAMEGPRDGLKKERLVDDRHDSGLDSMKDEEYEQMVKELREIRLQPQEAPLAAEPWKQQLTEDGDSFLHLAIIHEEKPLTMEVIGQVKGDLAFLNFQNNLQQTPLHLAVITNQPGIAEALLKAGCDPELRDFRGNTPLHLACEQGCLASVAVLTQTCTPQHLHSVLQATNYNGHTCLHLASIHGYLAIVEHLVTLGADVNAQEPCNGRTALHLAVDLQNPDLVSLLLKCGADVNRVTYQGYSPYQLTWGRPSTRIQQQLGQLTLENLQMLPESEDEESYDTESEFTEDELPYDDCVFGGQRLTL

[14] = test system: RAW264.7; assay: Inhibition of JNK phosphorylation in LPS-stimulated mouse RAW264.7 cells at 5 to 25 uM preincubated for 1 hr followed by LPS stimulation for 30 mins by Western blot method; assay type: cell-based
[15] = biological target: T1, NF-kappa-B inhibitor alpha (Mus musculus); assay: Inhibition of IkappaBalpha phosphorylation in cytosol of LPS-stimulated mouse RAW264.7 cells at 5 to 25 uM preincubated for 1 hr followed by LPS stimulation for 90 mins by Western blot method; assay type: cell-based
[16] = biological target: T1, NF-kappa-B inhibitor alpha (Mus musculus); assay: Inhibition of IkappaBalpha phosphorylation in nucleus of LPS-stimulated mouse RAW264.7 cells preincubated for 1 hr followed by LPS stimulation for 90 mins by Western blot method; assay type: cell-based
[17] = biological target: T1, NF-kappa-B inhibitor alpha (Mus musculus); assay: Inhibition of IkappaBalpha phosphorylation in cytosol of LPS-stimulated mouse RAW264.7 cells preincubated for 1 hr followed by LPS stimulation for 90 mins by Western blot method; assay type: cell-based
[18] = biological target: Transcription factor p65 (Mus musculus) (UniProt Q04207); assay: Inhibition of NF-kappaB p65 phosphorylation in nucleus of LPS-stimulated mouse RAW264.7 cells preincubated for 1 hr followed by LPS stimulation for 90 mins by Western blot method; assay type: cell-based
[19] = biological target: Transcription factor p65 (Mus musculus) (UniProt Q04207); assay: Inhibition of NF-kappaB p65 phosphorylation in cytosol of LPS-stimulated mouse RAW264.7 cells preincubated for 1 hr followed by LPS stimulation for 90 mins by Western blot method; assay type: cell-based

Sequence of Transcription factor p65 (Mus musculus) (Q04207 whole entry): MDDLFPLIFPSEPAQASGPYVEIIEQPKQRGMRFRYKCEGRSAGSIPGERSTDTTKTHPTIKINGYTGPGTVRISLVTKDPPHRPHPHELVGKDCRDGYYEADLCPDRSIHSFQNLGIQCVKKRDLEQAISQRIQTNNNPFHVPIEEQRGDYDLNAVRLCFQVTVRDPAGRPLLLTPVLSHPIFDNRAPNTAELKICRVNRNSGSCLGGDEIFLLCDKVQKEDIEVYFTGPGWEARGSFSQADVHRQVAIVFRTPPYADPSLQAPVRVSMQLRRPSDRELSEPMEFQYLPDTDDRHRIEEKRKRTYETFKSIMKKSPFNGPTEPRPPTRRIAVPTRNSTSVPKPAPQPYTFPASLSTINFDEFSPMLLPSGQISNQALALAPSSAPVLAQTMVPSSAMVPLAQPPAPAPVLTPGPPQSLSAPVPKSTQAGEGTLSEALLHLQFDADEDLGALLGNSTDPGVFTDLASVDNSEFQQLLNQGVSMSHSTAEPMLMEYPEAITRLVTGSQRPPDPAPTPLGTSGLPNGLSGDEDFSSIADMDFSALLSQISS

IC50 [10] [µM] | SMILES | Activity [1] | other results
30 | CC(=O)O[C@H]1C[C@@H](O)[C@@]2(C)C=C3OC(=O)C(C)=C3C[C@@H]2[C@H]1C | Non-Toxic | –
> 100 | CC1=C2C[C@@H]3[C@@H](C)[C@@H](O)C[C@@H](O)[C@@]3(C)C=C2OC1=O | Non-Toxic | –
> 100 | CC1=C2C[C@@H]3[C@](C)(O)[C@@H](O)C[C@@H](O)[C@@]3(C)C=C2OC1=O | Non-Toxic | –
> 100 | CC1=C[C@@H](O)[C@@H](O)[C@@]2(C)C[C@@]3(O)OC(=O)C(C)=C3C[C@H]12 | Non-Toxic | –
> 100 | CC1=C2C[C@@H]3[C@@H](C)[C@@H](O)C[C@@H](O)[C@@]3(C)C[C@@]2(O)OC1=O | Non-Toxic | –
57 | CC1=C2C[C@@H]3[C@@](C)(C[C@]2(O)OC1=O)C(=O)C=C[C@@]3(C)O | Non-Toxic | –
> 100 | CC1=C2C[C@H]3[C@](C)(C=C2OC1=O)[C@H](O)CC[C@]3(C)O | Non-Toxic | –
> 100 | CC1=C2C[C@H]3[C@](C)(C=C2OC1=O)[C@@H](O)CC[C@]3(C)O | Non-Toxic | –

Further lines, the compound ahead of its results:

SMILES | IC50 [10] [µM] | Activity [1] | other results
CO[C@@]12C[C@]3(C)C=CC(=O)[C@H](C)[C@H]3CC1=C(C)C(=O)O2 | 31.2 | Non-Toxic | inhibition [2]: inactive; inhibition [3]: inactive; inhibition [4]: Dose-dependent effect; inhibition [5]: inactive; inhibition [6]: Dose-dependent effect; inhibition [7]: inactive; inhibition [8]: inactive; inhibition [9]: inactive; inhibition [11]: Active; inhibition [12]: inactive; inhibition [13]: inactive; inhibition [14]: inactive; inhibition [15]: inactive
CC1=C2C[C@@H]3[C@@H](C)C(=O)C=C[C@@]3(C)C[C@H]2OC1=O | 70.2 | Non-Toxic | –
CO[C@@]12C[C@]3(C)[C@H](O)C[C@H](O)[C@H](C)[C@H]3CC1=C(C)C(=O)O2 | > 100 | Non-Toxic | –
CC(=O)OC1=C[C@@](C)(O)[C@@H]2CC3=C(C)C(=O)O[C@@]3(O)C[C@@]2(C)C1=O | > 100 | Non-Toxic | –
CC(=O)O[C@@H]1C(=O)C=C(C)[C@@H]2CC3=C(C)C(=O)O[C@@]3(O)C[C@@]12C | > 100 | Non-Toxic | –
O=c1cc(-c2ccc(O)c(O)c2)oc2cc(O)cc(O)c12 [LUTEOLIN] | 5.6 | – | –
CO[C@]12C[C@]3(C)C=CC(=O)[C@H](C)[C@H]3CC1=C(C)C(=O)O2 | 17.9 | Non-Toxic | inhibition [16]: Dose-dependent effect; inhibition [2]: inactive; inhibition [3]: inactive; inhibition [4]: Dose-dependent effect; inhibition [6]: Dose-dependent effect; inhibition [17]: Dose-dependent effect; inhibition [18]: Dose-dependent effect; inhibition [7]: inactive; inhibition [8]: inactive; inhibition [11]: Active; inhibition [12]: inactive; inhibition [14]: inactive; inhibition [19]: Dose-dependent effect
CC1=C2CC3=C(C)[C@@H](O)C[C@@H](O)[C@@]3(C)C[C@@]2(O)OC1=O | > 100 | Non-Toxic | –
CO[C@@]12C[C@]3(C)[C@H](O)C[C@H](OC(C)=O)[C@H](C)[C@H]3CC1=C(C)C(=O)O2 | 19.9 | Non-Toxic | –
CC(=O)O[C@H]1C[C@@H](O)[C@@]2(C)C[C@@]3(O)OC(=O)C(C)=C3C[C@@H]2[C@H]1C | > 100 | Non-Toxic | –
CO[C@]12C[C@@]3(C)[C@H](OC(C)=O)C(=O)C=C(C)[C@@H]3CC1=C(C)C(=O)O2 | > 100 | Non-Toxic | –
CC(=O)O[C@H]1C[C@@H](O)[C@@]2(C)C[C@@]3(O)OC(=O)C(C)=C3[C@H](O)[C@@H]2[C@H]1C | > 100 | Non-Toxic | –
CC1=C2C[C@@H]3[C@@H](C)C(=O)C=C[C@@]3(C)C[C@@]2(O)OC1=O | 68.9 | Non-Toxic | –
